Results on 23 molecules are retold here after ChEMBL document CHEMBL5729664, “Substituted pyridine derivatives as SARM1 inhibitors” (2023).

The nature of the experiment: Biological Assay: Each reaction was run at a volume of 20 μL containing 50 μM compound (dissolved in DMSO; final concentration of DMSO is 1% v/v), 40 nM human SARM1 (50-724), 0.3 mM NMN, 20 μM NAD, 1 mM TCEP, 25 mM HEPES pH 7.4, 10 mM KCl and 10 mM MgCl2. The reaction was incubated at room temperature for 60 minutes and quenched with 20 μL of 0.4% formic acid. The samples were run on Agilent HPLC 1260 Infinity II with Synergi 2.5 μM Fusion-RP 100 Å (100×3.0 mm) LC column from Phenomenex. Total run time for each sample was 4 minutes. The run was isocratic with 1.5% methanol in 40 mM ammonium acetate pH 6.0. Samples were run at a flow rate of 0.8 ml/min at 55° C. Peak areas of NAD and NAM were determined using OpenLAB CDS (Chem Station edition) software. For dose-response, the compound was diluted serially 1:3 in DMSO and added to the reaction starting at a final compound concentration of 100 μM in 1% DMSO.

SMILES strings stand for the structures.

By IC50 is commonly meant the point on the concentration scale where inhibition reaches its midpoint. For `NC(c1nc(Cc2ccncc2)cs1)C(F)(F)F` (stereo not drawn), the IC50 result is “in the range around 55 µM”.
As for `O[C@@H](c1nc(Cc2ccncc2)c[nH]1)c1cncs1`, the figure is below 1 µM.
As for `OC(c1ccccn1)c1ncc(Cc2ccncc2)[nH]1` (stereo not drawn), the entry is “in the range around 5.5 µM”; as for `CN(C)C(c1ncc(Cc2ccncc2)[nH]1)C(F)(F)F` (stereo not drawn), “in the range around 55 µM”.
As for `OC(c1ncc(Cc2ccncc2)[nH]1)(c1cncs1)C(F)(F)F` (stereo not drawn), the entry is “in the range around 55 µM”; as for `CN[C@@H](c1ncc(Cc2ccncc2)[nH]1)C(F)(F)F`, “in the range around 5.5 µM”.
In the case of `N[C@@H](c1nc(Cc2ccncc2)c[nH]1)C(F)(F)F`, the IC50 is below 1 µM.
With `OC(c1nc(Cc2ccncc2Cl)c[nH]1)C(F)(F)F` (stereo not drawn), the IC50 is below 1 µM.
The same measure for `C[C@@H](c1ccncc1)c1c[nH]c([C@H](O)C(F)(F)F)n1`: “in the range around 55 µM”.
The same measure for `O[C@@H](c1ncc(Cc2ccncc2)[nH]1)C(F)(F)F`: below 1 µM; for `O[C@H](C1N=CC(Cc2ccncc2F)=N1)C(F)(F)F` (stereo partly drawn): “in the range around 5.5 µM”.
On to `Cc1cnccc1Cc1c[nH]c([C@H](O)C(F)(F)F)n1`, for which the IC50 was below 1 µM.
Consider `OC(C1N=CC(Cc2ccncc2F)=N1)C(F)(F)F` (stereo not drawn), for which the IC50 was below 1 µM.
The same measure for `O[C@H](c1ncc(Cc2ccncc2)[nH]1)c1nccs1`: “in the range around 5.5 µM”; for `CNC(c1ncc(Cc2ccncc2)[nH]1)C(F)(F)F` (stereo not drawn): “in the range around 5.5 µM”; for `O[C@H](c1ncc(Cc2ccncc2)[nH]1)C(F)(F)F`: below 1 µM.
The same measure for `C[C@@H](c1ccncc1)c1c[nH]c([C@@H](O)C(F)(F)F)n1`: below 1 µM; for `CC(c1ccncc1)c1c[nH]c(CC(F)(F)F)n1` (stereo not drawn): below 1 µM; for `CC(O)(c1nc(Cc2ccncc2)c[nH]1)C(F)(F)F` (stereo not drawn): “in the range around 5.5 µM”.
The same measure for `C[C@H](c1ccncc1)c1c[nH]c(CC(F)(F)F)n1`: below 1 µM; for `CC(c1ccncc1)c1ccc(CC(F)(F)F)[nH]1` (stereo not drawn): “in the range around 5.5 µM”; for `COC(c1ncc(Cc2ccncc2)[nH]1)C(F)(F)F` (stereo not drawn): “in the range around 5.5 µM”.
Regarding `Cc1cnccc1Cc1cnc([C@@H](O)c2cncs2)[nH]1` (single isomer, unassigned), the IC50 entry is “in the range around 55 µM”.
